Source: patent US20250059198A1, “BRM DEGRADING COMPOUNDS AND ASSOCIATED METHODS OF USE” (Arvinas Operations, Inc., priority 2021, published 2025)

Biological target: T1, BRM (Homo sapiens, UniProt P51531)
T1 construct: Western Blot Screen of BRM Degradation in SW1573 Cells; endogenous in cells; host or cells: SW1573 cells
Experiment: BRM degradation (Dmax and DC50) in SW1573 cells, Western blot screen / In-Cell Western screen
Format: cell-based
Details: overnight (18-20 hours) treatment; for Dmax: read-out: Dmax (%)** (% degraded)
Outline: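 SW1573 cells were treated with compound for 18–20 h (final 0.1% DMSO). BRM was quantified either by Western blot of RIPA lysates or by fixed-cell In-Cell Western (LI-COR, 800/680 nm), each normalised to alpha-tubulin, giving Dmax and DC50.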

T1 sequence (P51531 whole entry): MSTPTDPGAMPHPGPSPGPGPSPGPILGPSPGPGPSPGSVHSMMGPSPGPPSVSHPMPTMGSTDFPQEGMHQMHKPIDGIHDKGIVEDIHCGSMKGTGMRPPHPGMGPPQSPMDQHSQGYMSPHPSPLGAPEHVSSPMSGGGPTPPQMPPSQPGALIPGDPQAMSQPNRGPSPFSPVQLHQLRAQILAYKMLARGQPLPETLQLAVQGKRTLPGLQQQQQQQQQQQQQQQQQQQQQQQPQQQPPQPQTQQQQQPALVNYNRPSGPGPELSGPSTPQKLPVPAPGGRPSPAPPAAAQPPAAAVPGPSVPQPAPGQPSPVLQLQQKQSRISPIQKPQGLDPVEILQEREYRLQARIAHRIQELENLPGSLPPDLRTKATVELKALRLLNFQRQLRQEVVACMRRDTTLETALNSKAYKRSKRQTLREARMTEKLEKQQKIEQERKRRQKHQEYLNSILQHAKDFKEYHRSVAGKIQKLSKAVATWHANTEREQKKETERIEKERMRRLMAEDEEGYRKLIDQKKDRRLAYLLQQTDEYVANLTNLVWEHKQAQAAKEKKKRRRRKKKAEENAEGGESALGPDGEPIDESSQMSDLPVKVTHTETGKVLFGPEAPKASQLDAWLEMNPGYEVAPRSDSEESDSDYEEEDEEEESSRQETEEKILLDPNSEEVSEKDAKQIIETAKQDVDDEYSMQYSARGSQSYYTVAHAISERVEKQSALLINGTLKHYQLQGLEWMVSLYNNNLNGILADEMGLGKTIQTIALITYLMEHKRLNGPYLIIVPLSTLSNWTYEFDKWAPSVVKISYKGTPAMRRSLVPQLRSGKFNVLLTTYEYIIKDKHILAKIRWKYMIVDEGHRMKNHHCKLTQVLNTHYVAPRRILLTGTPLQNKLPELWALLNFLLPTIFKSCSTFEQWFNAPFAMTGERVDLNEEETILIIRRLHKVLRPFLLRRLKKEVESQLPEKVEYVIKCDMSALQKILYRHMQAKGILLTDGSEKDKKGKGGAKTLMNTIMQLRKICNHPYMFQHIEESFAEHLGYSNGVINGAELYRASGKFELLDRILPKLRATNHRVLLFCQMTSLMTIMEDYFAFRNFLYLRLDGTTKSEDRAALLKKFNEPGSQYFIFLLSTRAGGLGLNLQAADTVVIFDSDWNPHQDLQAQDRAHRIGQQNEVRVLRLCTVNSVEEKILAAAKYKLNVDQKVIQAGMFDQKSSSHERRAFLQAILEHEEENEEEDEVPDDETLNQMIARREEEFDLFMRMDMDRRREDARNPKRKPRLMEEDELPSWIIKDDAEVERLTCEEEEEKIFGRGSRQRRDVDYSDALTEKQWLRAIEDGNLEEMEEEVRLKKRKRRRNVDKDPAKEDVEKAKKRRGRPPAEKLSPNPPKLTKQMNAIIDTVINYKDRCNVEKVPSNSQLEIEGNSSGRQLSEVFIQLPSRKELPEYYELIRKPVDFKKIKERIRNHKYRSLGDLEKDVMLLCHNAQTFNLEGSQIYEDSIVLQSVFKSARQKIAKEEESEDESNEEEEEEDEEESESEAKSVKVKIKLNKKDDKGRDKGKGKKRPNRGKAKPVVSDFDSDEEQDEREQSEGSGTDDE

SMILES | DC50 [nM] | Dmax [%]
Cc1ncsc1-c1ccc([C@H](C)NC(=O)[C@@H]2C[C@@H](O)CN2C(=O)[C@H](c2cc(N3CCC(CN4CCC(O[C@H]5C[C@H](Oc6cc(N7C8CCC7CN(c7cc(-c9ccccc9O)nnc7N)C8)ccn6)C5)CC4)CC3)no2)C(C)C)c(N)c1 [Compound 5, (2S,4R)-N-[(1S)-1-[2-amino-4-(4-methyl-1,3-thiazol-5-yl)phenyl]ethyl]-4-hydroxy-1-[(2S)-3-methyl-2-{3-[4-({4-[(1r,3r)-3-[(4-{3-[3-amino-6-(2-hydroxyphenyl)pyridazin-4-yl]-3,8-diazabicyclo[3.2.1]octan-8-yl}pyridin-2-yl)oxy]cyclobutoxy]piperidin-1-yl}methyl)piperidin-1-yl]-1,2-oxazol-5-yl}butanoyl]pyrrolidine-2-carboxamide] | ≥ 30 | –
Cc1ncsc1-c1ccc([C@H](C)NC(=O)[C@@H]2C[C@@H](O)CN2C(=O)[C@@H](c2cc(N3CCC(CN4CCC5(CC4)CC(N4CCC[C@@H](CN6C7CCC6CN(c6cc(-c8ccccc8O)nnc6N)C7)C4)C5)CC3)no2)C(C)C)cc1 [Compound 70, (2S,4R)-1-[(2R)-2-{3-[4-({2-[(3R)-3-({3-[3-amino-6-(2-hydroxyphenyl)pyridazin-4-yl]-3,8-diazabicyclo[3.2.1]octan-8-yl}methyl)piperidin-1-yl]-7-azaspiro[3.5]nonan-7-yl}methyl)piperidin-1-yl]-1,2-oxazol-5-yl}-3-methylbutanoyl]-4-hydroxy-N-[(1S)-1-[4-(4-methyl-1,3-thiazol-5-yl)phenyl]ethyl]pyrrolidine-2-carboxamide] | < 2.5 | > 75
CC(C)[C@@H](C(=O)N1C[C@H](O)C[C@H]1C(=O)N[C@@H](C)c1ccc(-c2ccnn2C)cc1)c1cc(N2CCC(CN3CCC(Oc4cc(N5CCN(c6cc(-c7ccccc7O)nnc6N)CC5)ccn4)CC3)CC2)no1 [Compound 41, (2S,4R)-1-[(2R)-2-{3-[4-({4-[(4-{4-[3-amino-6-(2-hydroxyphenyl)pyridazin-4-yl]piperazin-1-yl}pyridin-2-yl)oxy]piperidin-1-yl}methyl)piperidin-1-yl]-1,2-oxazol-5-yl}-3-methylbutanoyl]-4-hydroxy-N-[(1S)-1-[4-(1-methyl-1H-pyrazol-5-yl)phenyl]ethyl]pyrrolidine-2-carboxamide] | < 2.5 | > 75
Cc1ncsc1-c1ccc([C@H](C)NC(=O)[C@@H]2C[C@@H](O)CN2C(=O)[C@@H](c2cc(N3CCC(CN4CCC(O[C@H]5C[C@H](N6CCC(O[C@H]7CCN(c8cc(-c9ccccc9O)nnc8N)C7)CC6)C5)CC4)CC3)no2)C(C)C)cc1 [Compound 77, (2S,4R)-4-hydroxy-N-[(1S)-1-[4-(4-methyl-1,3-thiazol-5-yl)phenyl]ethyl]-1-[(2R)-3-methyl-2-{3-[4-({4-[(1r,3r)-3-(4-{[(3S)-1-[3-amino-6-(2-hydroxyphenyl)pyridazin-4-yl]pyrrolidin-3-yl]oxy}piperidin-1-yl)cyclobutoxy]piperidin-1-yl}methyl)piperidin-1-yl]-1,2-oxazol-5-yl}butanoyl]pyrrolidine-2-carboxamide] | < 2.5 | > 75
